In US20150025105A1, “INDOLIZINE DERIVATIVES” (priority 2012, published 2015):
pIC50: −log10 of the molar value. Like-named read-outs stand apart in the source and are kept apart here.

Tests used:
Format in all cases: biochemical
sPLA2 IIA = biological target: T1, sPLA2 IIA (Homo sapiens, UniProt P14555); assay: Phospholipase A2 (PLA2) inhibition assay, sPLA2 IIA; conditions: Table 2; for Selectivity Index (sPLA2/Lp-PLA2): ratio of sPLA2 IIA IC50 to Lp-PLA2 IC50
T1 construct: purchased Cayman Chemical Company
T1 sequence (P14555 21-144): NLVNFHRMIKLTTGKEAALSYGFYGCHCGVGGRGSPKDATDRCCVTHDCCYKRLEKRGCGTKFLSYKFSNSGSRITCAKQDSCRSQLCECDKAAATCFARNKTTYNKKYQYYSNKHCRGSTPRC
Protocol: (§1) Phospholipase inhibition by synthesized compounds toward human Lp-PLA2, sPLA2 IIA and IV (Cayman Chemical Company, Ann Arbor, Mich.) are evaluated using a 96-well plate format. In this assay, different concentrations of test compounds (0.001-30 μM) are incubated with the PLA2 enzymes. The substrate hydrolysis by PLA2 is monitored by UV-spectroscopy. […] The concentration of the test compound causing 50% inhibition (IC50, μM) is determined from the concentration-inhibition response curve. Isothermal calorimetry (ITC) experiments using will be carried out to determine binding constant (KB) and dissociation constant (KD) of Lp-PLA2 inhibitors (Ann. Rev. Biophy. 37, 135-151, 2008; J. Am. Chem. Soc. 125, 10570-10579, 2003)]. Reference compounds (eg: varespladib and darapladib) will be used for comparison.

human COX-1 = biological target: T2, human COX-1 (Homo sapiens, UniProt P23219); assay: Cyclooxygenase (COX) inhibition assay, COX-1 (enzyme immunoassay); conditions: Table 2
T2 construct: purchased Cayman Chemical
T2 sequence (P23219 24-599): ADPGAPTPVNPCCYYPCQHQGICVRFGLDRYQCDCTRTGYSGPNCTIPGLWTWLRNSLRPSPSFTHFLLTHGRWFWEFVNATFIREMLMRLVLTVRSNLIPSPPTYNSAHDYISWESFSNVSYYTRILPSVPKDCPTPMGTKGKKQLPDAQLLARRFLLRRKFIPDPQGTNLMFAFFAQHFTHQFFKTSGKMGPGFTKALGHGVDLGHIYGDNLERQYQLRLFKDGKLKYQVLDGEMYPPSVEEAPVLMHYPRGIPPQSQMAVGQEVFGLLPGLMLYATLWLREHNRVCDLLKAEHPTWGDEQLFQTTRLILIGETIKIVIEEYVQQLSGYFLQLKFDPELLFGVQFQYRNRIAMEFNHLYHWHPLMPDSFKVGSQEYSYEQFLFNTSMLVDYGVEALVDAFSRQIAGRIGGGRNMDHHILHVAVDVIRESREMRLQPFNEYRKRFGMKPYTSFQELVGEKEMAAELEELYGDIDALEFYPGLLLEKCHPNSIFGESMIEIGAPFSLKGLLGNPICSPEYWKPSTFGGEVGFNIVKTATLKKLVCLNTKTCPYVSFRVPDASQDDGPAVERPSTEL
Protocol: (§2) The ability of the test compounds to inhibit (IC50 values, μM) human COX-1 and COX-2 (Cayman Chemical, Ann Arbor) is determined PGF2α, produced from COX reaction is measured by enzyme immunoassay. Either COX-1 or COX-2 enzyme in the presence of heme and various concentrations of test compound solutions (0.01-10 μM) is incubated after which substrate arachidonic acid is added. The concentration of the test compound causing 50% inhibition (IC50, μM) is calculated from the concentration-inhibition response curve.

human COX-2 = biological target: T3, human COX-2 (Homo sapiens, UniProt P35354); assay: Cyclooxygenase (COX) inhibition assay, COX-2 (enzyme immunoassay); conditions: Table 2
T3 construct: purchased Cayman Chemical
T3 sequence (P35354 18-604): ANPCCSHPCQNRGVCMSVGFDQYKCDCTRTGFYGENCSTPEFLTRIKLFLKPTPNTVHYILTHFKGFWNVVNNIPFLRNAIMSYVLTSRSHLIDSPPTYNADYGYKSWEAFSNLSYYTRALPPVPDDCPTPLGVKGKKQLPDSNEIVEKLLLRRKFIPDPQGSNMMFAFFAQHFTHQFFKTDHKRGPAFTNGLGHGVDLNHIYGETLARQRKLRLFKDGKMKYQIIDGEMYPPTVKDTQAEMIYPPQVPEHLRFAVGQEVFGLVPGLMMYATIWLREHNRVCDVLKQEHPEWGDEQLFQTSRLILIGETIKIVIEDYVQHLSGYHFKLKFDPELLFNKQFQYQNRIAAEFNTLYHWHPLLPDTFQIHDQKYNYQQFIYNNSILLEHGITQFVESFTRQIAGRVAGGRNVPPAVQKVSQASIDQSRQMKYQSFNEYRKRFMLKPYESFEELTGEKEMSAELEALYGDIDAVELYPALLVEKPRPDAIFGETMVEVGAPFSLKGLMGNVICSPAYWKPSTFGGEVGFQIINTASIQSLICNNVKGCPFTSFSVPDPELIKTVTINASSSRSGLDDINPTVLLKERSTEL
Protocol: as §2

human Lp-PLA2 = biological target: T4, human Lp-PLA2 (Homo sapiens, UniProt Q13093); assay: Lp-PLA2 inhibition assay (UV-spectrometry, 2-thio-PAF/DTNB, 96-well)
T4 construct: purchased Cayman Chemical
T4 sequence (Q13093 22-441): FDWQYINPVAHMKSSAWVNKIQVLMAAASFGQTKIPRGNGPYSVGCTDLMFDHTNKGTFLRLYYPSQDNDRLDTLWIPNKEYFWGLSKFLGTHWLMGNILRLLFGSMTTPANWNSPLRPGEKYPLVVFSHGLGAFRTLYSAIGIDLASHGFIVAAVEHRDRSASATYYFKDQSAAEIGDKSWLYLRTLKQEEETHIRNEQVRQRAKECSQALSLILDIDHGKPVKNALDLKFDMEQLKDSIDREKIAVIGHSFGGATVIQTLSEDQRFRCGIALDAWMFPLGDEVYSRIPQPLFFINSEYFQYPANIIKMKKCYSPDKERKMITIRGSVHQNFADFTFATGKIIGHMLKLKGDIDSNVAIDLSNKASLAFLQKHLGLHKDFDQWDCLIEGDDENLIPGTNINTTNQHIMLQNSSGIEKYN
Protocol: The ability of synthesized indolizine derivatives (6) to inhibit (IC50 values, μM) human Lp-PLA2 (Cayman Chemical, Ann Arbor, Mich.) was determined based on a UV-spectrometry assay using 96-well plate format. […] The concentration of the test compound causing 50% inhibition (IC50, μM) was determined from the concentration-inhibition response curve (duplicate to quadruplicate determinations).
as §1

[1] = Table 1, substrate 2-thio-PAF, DTNB, 0.1M Tris-HCl pH 7.2, read-out: Lp-PLA2 (IC50)
[2] = Table 2, read-out: Lp-PLA2 Inhibition (IC50)

Compound | pIC50 (sPLA2 IIA) | Selectivity Index (sPLA2/Lp-PLA2) (sPLA2 IIA) | pIC50 (human COX-1) | pIC50 (human COX-2) | pIC50 (human Lp-PLA2; [1]) | pIC50 (human Lp-PLA2; [2])
CC(=O)c1c(-c2ccccc2)c(C(=O)c2ccccc2)c2ccccn12 [Cmpd 1] | < 5.00 | >19.6 | < 5.00 | < 5.00 | 6.29 | 6.29
CC(=O)c1c(-c2ccccc2)c(C(=O)c2ccc(C)cc2)c2ccccn12 [Cmpd 2, 1-[1-(4-methylbenzoyl)-2-phenylindolizin-3-yl]ethanone] | < 5.00 | >500 | < 5.00 | < 5.00 | 7.52 | 7.70
CC(=O)c1c(-c2ccccc2)c(C(=O)c2ccc(C(C)C)cc2)c2ccccn12 [Cmpd 3, 1-[1-(4-isopropylbenzoyl)-2-phenylindolizin-3-yl]ethanone] | < 5.00 | >12.5 | < 5.00 | < 5.00 | 6.10 | 6.10
CCCCc1ccc(C(=O)c2c(-c3ccccc3)c(C(C)=O)n3ccccc23)cc1 [Cmpd 4] | < 5.00 | >33.3 | < 5.00 | < 5.00 | 6.54 | 6.52
COc1ccc(C(=O)c2c(-c3ccccc3)c(C(C)=O)n3ccccc23)cc1 [Cmpd 5, 1-[1-(4-methoxybenzoyl)-2-phenylindolizin-3-yl]ethanone] | < 5.00 | >13.1 | < 5.00 | < 5.00 | 6.12 | 6.12
CSc1ccc(C(=O)c2c(-c3ccccc3)c(C(C)=O)n3ccccc23)cc1 [Cmpd 6, 1-[1-(4-(methylthio)benzoyl)-2-phenylindolizin-3-yl]ethanone] | < 5.00 | >40 | < 5.00 | < 5.00 | 6.62 | 6.60
CC(=O)c1c(-c2ccccc2)c(C(=O)c2ccc(C(F)(F)F)cc2)c2ccccn12 [Cmpd 7, 1-[2-phenyl-1-(4-(trifluoromethyl)benzoyl)indolizin-3-yl]ethanone] | < 5.00 | >166.6 | < 5.00 | < 5.00 | 7.22 | 7.22
CC(=O)c1c(-c2ccccc2)c(C(=O)c2ccc(F)cc2)c2ccccn12 [Cmpd 8, 1-[1-(4-fluorobenzoyl)-2-phenylindolizin-3-yl]ethanone] | < 5.00 | >17.5 | < 5.00 | < 5.00 | 6.60 | 6.24
CC(=O)c1c(-c2ccccc2)c(C(=O)c2ccc(Br)cc2)c2ccccn12 [Cmpd 9, 1-[1-(4-bromobenzoyl)-2-phenylindolizin-3-yl]ethanone] | < 5.00 | >14.2 | < 5.00 | < 5.00 | 6.03 | 6.15
CC(=O)c1c(-c2ccccc2)c(C(=O)c2ccc(Cl)cc2)c2ccccn12 [Cmpd 10, 1-[1-(4-chlorobenzoyl)-2-phenylindolizin-3-yl]ethanone] | < 5.00 | >10.6 | < 5.00 | < 5.00 | 6.15 | 6.03
CC(=O)c1c(-c2ccc(C)cc2)c(C(=O)c2ccccc2)c2ccccn12 [Cmpd 11, 1-[1-benzoyl-2-p-tolylindolizin-3-yl]ethanone] |  |  |  |  | 7.70 | 
CC(=O)c1c(-c2ccccc2)c(C(=O)c2ccc(F)c(F)c2)c2ccccn12 [Cmpd 12, 1-[1-(3,4-difluorobenzoyl)-2-phenylindolizin-3-yl]ethanone] |  |  |  |  | 6.10 | 
